Test system: 945468-187-T-J3-PDC spheroids with HUVEC/MSC, viability
Experiment: Anticancer human tumor 945468-187-T-J3-PDC patient-derived rectal carcinoma cell line growth inhibition [PI3K]
Conditions: for IC50: curve of first compound; for viability, T/C: stronger effect = lower value
In short: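 Three cell types, namely tumor cells, endothelial cells and mesenchymal stem cells, formed each spheroid. Combinations with four PI3K inhibitors were screened at clinically achievable concentrations decreasing by half-log, and spheroid viability was recorded.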

[1] = second compound 0.0316 µM, first compound 0.0316 µM
[2] = second compound 0.0316 µM, first compound 0.1 µM
[3] = second compound 0.0316 µM, first compound 0.316 µM
[4] = second compound 0.0316 µM, first compound 1 µM
[5] = second compound 0.0316 µM, first compound 3.16 µM
[6] = second compound 0.0316 µM, first compound 10 µM
[7] = second compound 0.1 µM, first compound 0.0316 µM
[8] = second compound 0.1 µM, first compound 0.1 µM
[9] = second compound 0.1 µM, first compound 0.316 µM
[10] = second compound 0.1 µM, first compound 1 µM
[11] = second compound 0.1 µM, first compound 3.16 µM
[12] = second compound 0.1 µM, first compound 10 µM
[13] = second compound 0.316 µM, first compound 0.0316 µM
[14] = second compound 0.316 µM, first compound 0.1 µM
[15] = second compound 0.316 µM, first compound 0.316 µM
[16] = second compound 0.316 µM, first compound 1 µM
[17] = second compound 0.316 µM, first compound 3.16 µM
[18] = second compound 0.316 µM, first compound 10 µM
[19] = second compound 1 µM, first compound 0.0316 µM
[20] = second compound 1 µM, first compound 0.1 µM
[21] = second compound 1 µM, first compound 0.316 µM
[22] = second compound 1 µM, first compound 1 µM
[23] = second compound 1 µM, first compound 3.16 µM
[24] = second compound 1 µM, first compound 10 µM
[25] = second compound 3.16 µM, first compound 0.0316 µM
[26] = second compound 3.16 µM, first compound 0.1 µM
[27] = second compound 3.16 µM, first compound 0.316 µM
[28] = second compound 3.16 µM, first compound 1 µM
[29] = second compound 3.16 µM, first compound 3.16 µM
[30] = second compound 3.16 µM, first compound 10 µM
[31] = second compound 10 µM, first compound 0.0316 µM
[32] = second compound 10 µM, first compound 0.1 µM
[33] = second compound 10 µM, first compound 0.316 µM
[34] = second compound 10 µM, first compound 1 µM
[35] = second compound 10 µM, first compound 3.16 µM
[36] = second compound 10 µM, first compound 10 µM
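Further: spheroids exposed to agents for 7 days before viability read.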
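Wherever viability, T/C is given: 100% = DMSO vehicle control viability.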

Compound: C#Cc1c(F)ccc2cc(O)cc(-c3ncc4c(N5CC6CCC(C5)N6)nc(OCC56CCCN5CC(F)C6)nc4c3F)c12 (centres undefined) + Cc1nc(NC(=O)N2CCCC2C(N)=O)sc1-c1ccnc(C(C)(C)C(F)(F)F)c1
- IC50 (second compound 0.0316 µM): > 10 µM
- IC50 (second compound 0.1 µM): > 10 µM
- IC50 (second compound 0.316 µM): > 10 µM
- IC50 (second compound 1 µM): > 10 µM
- IC50 (second compound 3.16 µM): 7.25 µM
- IC50 (second compound 10 µM): 0.464 µM
- viability, T/C [1]: 96.8%
- viability, T/C [2]: 101%
- viability, T/C [3]: 95.4%
- viability, T/C [4]: 107%
- viability, T/C [5]: 127%
- viability, T/C [6]: 119%
- viability, T/C [7]: 105%
- viability, T/C [8]: 115%
- viability, T/C [9]: 101%
- viability, T/C [10]: 113%
- viability, T/C [11]: 132%
- viability, T/C [12]: 115%
- viability, T/C [13]: 109%
- viability, T/C [14]: 105%
- viability, T/C [15]: 97.6%
- viability, T/C [16]: 113%
- viability, T/C [17]: 134%
- viability, T/C [18]: 118%
- viability, T/C [19]: 114%
- viability, T/C [20]: 110%
- viability, T/C [21]: 109%
- viability, T/C [22]: 112%
- viability, T/C [23]: 127%
- viability, T/C [24]: 106%
- viability, T/C [25]: 107%
- viability, T/C [26]: 110%
- viability, T/C [27]: 111%
- viability, T/C [28]: 103%
- viability, T/C [29]: 80.9%
- viability, T/C [30]: 38%
- viability, T/C [31]: 70.4%
- viability, T/C [32]: 59.9%
- viability, T/C [33]: 50%
- viability, T/C [34]: 47.8%
- viability, T/C [35]: 26.9%
- viability, T/C [36]: 9.1%

Compound: CC1(C)CCC(Nc2ncc(C(F)(F)F)c(-c3c[nH]c4c(P(C)(C)=O)c(C#N)ccc34)n2)CN1 (centres undefined) + Cc1nc(NC(=O)N2CCCC2C(N)=O)sc1-c1ccnc(C(C)(C)C(F)(F)F)c1
- IC50 (second compound 0.0316 µM): 5.65 µM
- IC50 (second compound 0.1 µM): 5.41 µM
- IC50 (second compound 0.316 µM): 5.06 µM
- IC50 (second compound 1 µM): 4.44 µM
- IC50 (second compound 3.16 µM): 1.9 µM
- IC50 (second compound 10 µM): 0.841 µM
- viability, T/C [1]: 81.7%
- viability, T/C [2]: 84.6%
- viability, T/C [3]: 72.8%
- viability, T/C [4]: 85.5%
- viability, T/C [5]: 101%
- viability, T/C [6]: 15.4%
- viability, T/C [7]: 91.4%
- viability, T/C [8]: 75.8%
- viability, T/C [9]: 79%
- viability, T/C [10]: 79.9%
- viability, T/C [11]: 84.4%
- viability, T/C [12]: 13.2%
- viability, T/C [13]: 82.5%
- viability, T/C [14]: 75.5%
- viability, T/C [15]: 65.4%
- viability, T/C [16]: 75.9%
- viability, T/C [17]: 85%
- viability, T/C [18]: 11.2%
- viability, T/C [19]: 107%
- viability, T/C [20]: 76.7%
- viability, T/C [21]: 72.2%
- viability, T/C [22]: 86.7%
- viability, T/C [23]: 68%
- viability, T/C [24]: 7.36%
- viability, T/C [25]: 78.5%
- viability, T/C [26]: 72.2%
- viability, T/C [27]: 75.5%
- viability, T/C [28]: 54.8%
- viability, T/C [29]: 44.5%
- viability, T/C [30]: 5.2%
- viability, T/C [31]: 65.1%
- viability, T/C [32]: 60%
- viability, T/C [33]: 50.6%
- viability, T/C [34]: 44.5%
- viability, T/C [35]: 40.2%
- viability, T/C [36]: 2.06%

— PubChem BioAssay AID1963968 (Molecular Pharmacology Branch, DTP, NCI, 2024)
